Results reported in patent US20250127170A1, “TRIAZINE HERBICIDAL COMPOUNDS” (SYNGENTA CROP PROTECTION AG, priority 2021, published 2025).

Assays:
Type in all cases: in vivo
Settings in all cases: 312 h, evaluated after 13 days, 100=total damage to plant, 0=no damage to plant
[1] = tested on: Setaria faberi (SETFA); experiment: Post-emergence biological efficacy
Experimental: (§1) Seeds of weeds and/or crops were sown in standard soil in pots (Amaranthus palmeri (AMAPA), Chenopodium album (CHEAL), Euphorbia heterophylla (EPHHL), Ipomoea hederacea (IPOHE), Eleusine indica (ELEIN), Lolium perenne (LOLPE), Digitaria sanguinalis (DIGSA), Setaria faberi (SETFA), Echinochloa crus-galli (ECHCG)). After cultivation for 14 days under controlled conditions in a glasshouse (at 24/19° C., day/night; 16 hours light), the plants were sprayed with an aqueous spray solution derived from the formulation of the technical active ingredient in a small amount of acetone and a special solvent and emulsifier mixture referred to as IF50 (11.12% Emulsogen EL360™+44.44% N-methylpyrrolidone+44.44% Dowanol DPM glycol ether), to create a 50 g/l solution which was then diluted using 0.2% Genapol XO80 as diluent to give the desired final dose of test compound. The test plants were then grown under controlled conditions in the glasshouse (at 24/18° C., day/night; 15 hours light; 50% humidity) and watered twice daily. After 13 days the test was evaluated (100=total damage to plant; 0=no damage to plant).

[2] = tested on: Echinochloa crus-galli (ECHCG); experiment: Post-emergence biological efficacy
Experimental: as §1

[3] = tested on: Ipomoea hederacea (IPOHE); experiment: Post-emergence biological efficacy
Experimental: as §1

[4] = tested on: Lolium perenne (LOLPE); experiment: Post-emergence biological efficacy
Experimental: as §1

[5] = tested on: Chenopodium album (CHEAL); experiment: Post-emergence biological efficacy
Experimental: as §1

[6] = tested on: Eleusine indica (ELEIN); experiment: Post-emergence biological efficacy
Experimental: as §1

[7] = tested on: Amaranthus palmeri (AMAPA); experiment: Post-emergence biological efficacy
Experimental: as §1

[8] = tested on: Euphorbia heterophylla (EPHHL); experiment: Post-emergence biological efficacy
Experimental: as §1

[9] = tested on: Digitaria sanguinalis (DIGSA); experiment: Post-emergence biological efficacy
Experimental: as §1

[10] = tested on: Setaria faberi (SETFA); experiment: Pre-emergence biological efficacy
Experimental: (§2) Seeds of weeds and/or crops were sown in standard soil in pots (Amaranthus palmeri (AMAPA), Lolium perenne (LOLPE), Euphorbia heterophylla (EPHHL), Ipomoea hederacea (IPOHE), Setaria faberi (SETFA), Echinochloa crus-galli (ECHCG)). After cultivation for one day under controlled conditions in a glasshouse (at 24/19° C., day/night; 16 hours light), the plants were sprayed with an aqueous spray solution derived from the formulation of the technical active ingredient in a small amount of acetone and a special solvent and emulsifier mixture referred to as IF50 (11.12% Emulsogen EL360™+44.44% N-methylpyrrolidone+44.44% Dowanol DPM glycol ether), to create a 50 g/l solution which was then diluted using 0.2% Genapol XO80 as diluent to give the desired final dose of test compound.
(§3) The test plants were then grown under controlled conditions in the glasshouse (at 24/18° C., day/night; 15 hours light; 50% humidity) and watered twice daily. After 13 days the test was evaluated (100=total damage to plant; 0=no damage to plant).

[11] = tested on: Echinochloa crus-galli (ECHCG); experiment: Pre-emergence biological efficacy
Experimental: as §2, §3

[12] = tested on: Ipomoea hederacea (IPOHE); experiment: Pre-emergence biological efficacy
Experimental: as §2, §3

[13] = tested on: Lolium perenne (LOLPE); experiment: Pre-emergence biological efficacy
Experimental: as §2, §3

[14] = tested on: Amaranthus palmeri (AMAPA); experiment: Pre-emergence biological efficacy
Experimental: as §2, §3

[15] = tested on: Euphorbia heterophylla (EPHHL); experiment: Pre-emergence biological efficacy
Experimental: as §2, §3

CCOC(=O)[C@H]1C[C@@H](OC(=O)c2cc(-n3c(=O)n(C)c(=S)n(C)c3=O)c(F)cc2Cl)C1 [1-981 (cis), (cis)-(3-Ethoxycarbonylcyclobutyl) 2-chloro-5-(3,5-dimethyl-2,6-dioxo-4-thioxo-1,3,5-triazinan-1-yl)-4-fluoro-benzoate]
pest or weed control at 250 g/ha [1]: 100%
pest or weed control at 250 g/ha [2]: 80%
pest or weed control at 250 g/ha [3]: 50%
pest or weed control at 250 g/ha [4]: 70%
pest or weed control at 250 g/ha [5]: 100%
pest or weed control at 250 g/ha [6]: 50%
pest or weed control at 250 g/ha [7]: 80%
pest or weed control at 250 g/ha [8]: 60%
pest or weed control at 250 g/ha [9]: 50%
pest or weed control at 250 g/ha [10]: 50%
pest or weed control at 250 g/ha [11]: 100%
pest or weed control at 250 g/ha [12]: 70%
pest or weed control at 250 g/ha [13]: 80%
pest or weed control at 250 g/ha [14]: 100%
pest or weed control at 250 g/ha [15]: 50%

CCOC(=O)COC(=O)c1cc(-n2c(=O)n(C)c(=S)n(C)c2=O)c(F)cc1Cl [Compound 1-12, (2-ethoxy-2-oxo-ethyl]-2-chloro-5-(3,5-dimethyl-2,6-dioxo-4-thioxo-1,3,5-triazinan-1-yl)-4-fluoro-benzoate]
pest or weed control at 250 g/ha [1]: 100%
pest or weed control at 250 g/ha [2]: 100%
pest or weed control at 250 g/ha [3]: 100%
pest or weed control at 250 g/ha [4]: 100%
pest or weed control at 250 g/ha [5]: 100%
pest or weed control at 250 g/ha [6]: 100%
pest or weed control at 250 g/ha [7]: 100%
pest or weed control at 250 g/ha [8]: 100%
pest or weed control at 250 g/ha [9]: 100%
pest or weed control at 250 g/ha [10]: 80%
pest or weed control at 250 g/ha [11]: 90%
pest or weed control at 250 g/ha [12]: 80%
pest or weed control at 250 g/ha [13]: 90%
pest or weed control at 250 g/ha [14]: 100%
pest or weed control at 250 g/ha [15]: 90%

COC(=O)CNC(=O)c1cc(-n2c(=O)n(C)c(=S)n(C)c2=O)c(F)cc1Cl [Compound 1-35, Methyl 2-[[2-chloro-5-(3,5-dimethyl-2,6-dioxo-4-thioxo-1,3,5-triazinan-1-yl)-4-fluoro-benzoyl]amino]acetate]
pest or weed control at 250 g/ha [1]: 40%
pest or weed control at 250 g/ha [2]: 40%
pest or weed control at 250 g/ha [3]: 50%
pest or weed control at 250 g/ha [4]: 10%
pest or weed control at 250 g/ha [5]: 20%
pest or weed control at 250 g/ha [6]: 40%
pest or weed control at 250 g/ha [7]: 30%
pest or weed control at 250 g/ha [8]: 70%
pest or weed control at 250 g/ha [9]: 40%
pest or weed control at 250 g/ha [10]: 10%
pest or weed control at 250 g/ha [11]: 80%
pest or weed control at 250 g/ha [12]: 0%
pest or weed control at 250 g/ha [13]: 70%
pest or weed control at 250 g/ha [14]: 30%
pest or weed control at 250 g/ha [15]: 40%

CCOC(=O)[C@H](C)OC(=O)c1cc(-n2c(=O)n(C)c(=S)n(C)c2=O)c(F)cc1Cl [Compound 1-63 (S-enantiomer), [(1S)-2-ethoxy-1-methyl-2-oxo-ethyl]-2-chloro-5-(3,5-dimethyl-2,6-dioxo-4-thioxo-1,3,5-triazinan-1-yl)-4-fluoro-benzoate]
pest or weed control at 250 g/ha [1]: 100%
pest or weed control at 250 g/ha [2]: 100%
pest or weed control at 250 g/ha [3]: 100%
pest or weed control at 250 g/ha [4]: 100%
pest or weed control at 250 g/ha [5]: 100%
pest or weed control at 250 g/ha [6]: 100%
pest or weed control at 250 g/ha [7]: 100%
pest or weed control at 250 g/ha [8]: 100%
pest or weed control at 250 g/ha [9]: 100%
pest or weed control at 250 g/ha [10]: 80%
pest or weed control at 250 g/ha [11]: 100%
pest or weed control at 250 g/ha [12]: 60%
pest or weed control at 250 g/ha [13]: 90%
pest or weed control at 250 g/ha [14]: 100%
pest or weed control at 250 g/ha [15]: 90%

CCOC(=O)C(CC)OC(=O)c1cc(-n2c(=O)n(C)c(=S)n(C)c2=O)c(F)cc1Cl (stereo not shown) [Compound 1-114, 1-Ethoxycarbonylpropyl 2-chloro-5-(3,5-dimethyl-2,6-dioxo-4-thioxo-1,3,5-triazinan-1-yl)-4-fluoro-benzoate]
pest or weed control at 250 g/ha [1]: 30%
pest or weed control at 250 g/ha [2]: 60%
pest or weed control at 250 g/ha [3]: 40%
pest or weed control at 250 g/ha [4]: 30%
pest or weed control at 250 g/ha [5]: 70%
pest or weed control at 250 g/ha [6]: 20%
pest or weed control at 250 g/ha [7]: 20%
pest or weed control at 250 g/ha [8]: 70%
pest or weed control at 250 g/ha [9]: 20%
pest or weed control at 250 g/ha [10]: 10%
pest or weed control at 250 g/ha [11]: 100%
pest or weed control at 250 g/ha [12]: 10%
pest or weed control at 250 g/ha [13]: 70%
pest or weed control at 250 g/ha [14]: 100%
pest or weed control at 250 g/ha [15]: 40%

CCNC(=O)C(C)(C)OC(=O)c1cc(-n2c(=O)n(C)c(=S)n(C)c2=O)c(F)cc1Cl [Compound 1-168, [2-(ethylamino)-1,1-dimethyl-2-oxo-ethyl] 2-chloro-5-(3,5-dimethyl-2,6-dioxo-4-thioxo-1,3,5-triazinan-1-yl)-4-fluoro-benzoate]
pest or weed control at 250 g/ha [1]: 100%
pest or weed control at 250 g/ha [2]: 100%
pest or weed control at 250 g/ha [3]: 100%
pest or weed control at 250 g/ha [4]: 100%
pest or weed control at 250 g/ha [5]: 100%
pest or weed control at 250 g/ha [6]: 100%
pest or weed control at 250 g/ha [7]: 100%
pest or weed control at 250 g/ha [8]: 100%
pest or weed control at 250 g/ha [9]: 100%
pest or weed control at 250 g/ha [10]: 100%
pest or weed control at 250 g/ha [11]: 100%
pest or weed control at 250 g/ha [12]: 90%
pest or weed control at 250 g/ha [13]: 100%
pest or weed control at 250 g/ha [14]: 100%
pest or weed control at 250 g/ha [15]: 100%

CCOC(=O)C1(NC(=O)c2cc(-n3c(=O)n(C)c(=S)n(C)c3=O)c(F)cc2Cl)CC1 [Compound 1-240, ethyl 1-[[2-chloro-5-(3,5-dimethyl-2,6-dioxo-4-thioxo-1,3,5-triazinan-1-yl)-4-fluoro-benzoyl]amino]cyclopropanecarboxylate]
pest or weed control at 250 g/ha [1]: 80%
pest or weed control at 250 g/ha [2]: 30%
pest or weed control at 250 g/ha [3]: 60%
pest or weed control at 250 g/ha [4]: 90%
pest or weed control at 250 g/ha [5]: 100%
pest or weed control at 250 g/ha [6]: 100%
pest or weed control at 250 g/ha [7]: 100%
pest or weed control at 250 g/ha [8]: 100%
pest or weed control at 250 g/ha [9]: 70%
pest or weed control at 250 g/ha [10]: 70%
pest or weed control at 250 g/ha [11]: 30%
pest or weed control at 250 g/ha [12]: 10%
pest or weed control at 250 g/ha [13]: 30%
pest or weed control at 250 g/ha [14]: 100%
pest or weed control at 250 g/ha [15]: 100%

CCOC(=O)C1(N(C)C(=O)c2cc(-n3c(=O)n(C)c(=S)n(C)c3=O)c(F)cc2Cl)CC1 [Compound 1-252, Ethyl 1-[[2-chloro-5-(3,5-dimethyl-2,6-dioxo-4-thioxo-1,3,5-triazinan-1-yl)-4-fluoro-benzoyl]-methyl-amino]cyclopropanecarboxylate]
pest or weed control at 250 g/ha [1]: 0%
pest or weed control at 250 g/ha [2]: 0%
pest or weed control at 250 g/ha [3]: 30%
pest or weed control at 250 g/ha [4]: 40%
pest or weed control at 250 g/ha [5]: 70%
pest or weed control at 250 g/ha [6]: 50%
pest or weed control at 250 g/ha [7]: 50%
pest or weed control at 250 g/ha [8]: 40%
pest or weed control at 250 g/ha [9]: 0%
pest or weed control at 250 g/ha [14]: 100%

CCOC(=O)CCNC(=O)c1cc(-n2c(=O)n(C)c(=S)n(C)c2=O)c(F)cc1Cl [Compound 1-342, Ethyl 3-[[2-chloro-5-(3,5-dimethyl-2,6-dioxo-4-thioxo-1,3,5-triazinan-1-yl)-4-fluoro-benzoyl]amino]propanoate]
pest or weed control at 250 g/ha [1]: 80%
pest or weed control at 250 g/ha [2]: 80%
pest or weed control at 250 g/ha [3]: 70%
pest or weed control at 250 g/ha [4]: 20%
pest or weed control at 250 g/ha [5]: 30%
pest or weed control at 250 g/ha [6]: 10%
pest or weed control at 250 g/ha [7]: 30%
pest or weed control at 250 g/ha [8]: 40%
pest or weed control at 250 g/ha [9]: 50%
pest or weed control at 250 g/ha [10]: 80%
pest or weed control at 250 g/ha [11]: 90%
pest or weed control at 250 g/ha [12]: 60%
pest or weed control at 250 g/ha [13]: 70%
pest or weed control at 250 g/ha [14]: 80%
pest or weed control at 250 g/ha [15]: 90%
